Source: ChEMBL document CHEMBL1137190, “Synthesis and KCNQ2 opener activity of N-(1-benzo[1,3]dioxol-5-yl-ethyl, N-[1-(2,3-dihydro-benzofuran-5-yl)-ethyl, and N-[1-(2,3-dihydro-1H-indol-5-yl)-ethyl acrylamides” (Bioorg Med Chem Lett, 2004)

System: HEK293
Assay: Effective concentration against whole-cell patch clamp from […] HEK293 cells
Assay type: functional, cell-based, Homo sapiens
Conditions: Homo sapiens, HEK293

Row | SMILES | EC50
1 | C[C@H](NC(=O)/C=C/c1ccccc1F)c1ccc2c(c1)CCN2 | 0.43 µM
2 | CCOC(=O)Nc1ccc(NCc2ccc(F)cc2)cc1N [EZOGABINE] | 1.3 µM
3 | C[C@H](NC(=O)/C=C/c1ccccc1)c1cccc(N2CCOCC2)c1 | 3.2 µM
4 | C[C@H](NC(=O)/C=C/c1c(F)cccc1F)c1ccc2c(c1)CCO2 | 0.33 µM
5 | C[C@H](NC(=O)/C=C/c1ccccc1F)c1ccc2c(c1)N(CC1CC1)CCO2 | 0.06 µM

Same assay, conditions: hek293

Row | SMILES | EC50
6 | C[C@H](NC(=O)/C=C/c1ccccc1Cl)c1ccc2c(c1)OCO2 (racemic) | 0.07 µM
7 | C[C@H](NC(=O)/C=C/c1ccccc1Cl)c1ccc2c(c1)OCO2 | 0.02 µM
